Measured values from patent EP1025114B1, “3'-N-MODIFIED 6-O-SUBSTITUTED ERYTHROMYCIN KETOLIDE DERIVATIVES HAVING ANTIBACTERIAL ACTIVITY” (priority 1997, dated 1999).

What was measured:
Assay in all cases: In vitro antibacterial activity, agar dilution MIC
Assay type in all cases: cell-based
Candida albicans CCH 442 = Candida albicans CCH 442 (organism code TT); BHI agar, 35-37 °C, 20 to 24 hours; unit assumed
Outline: (§1)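 Test compound was serially diluted in Brain Heart Infusion agar across twelve plates, and each plate was spot-inoculated by replicator with 1:100 culture dilutions (1:10 for slow growers such as Streptococcus). MIC was the lowest concentration giving no growth, slight haze or sparsely isolated colonies relative to a drug-free growth control.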

[1] = test system: Enterococcus faecium ATCC 8043; conditions: Enterococcus faecium ATCC 8043 (organism code II); BHI agar, 35-37 °C, 20 to 24 hours; unit assumed
Outline: as §1

Escherichia coli DC-2 = Escherichia coli DC-2 (organism code SS); BHI agar, 35-37 °C, 20 to 24 hours; unit assumed
Outline: as §1

Escherichia coli JUHL = Escherichia coli JUHL (organism code QQ); BHI agar, 35-37 °C, 20 to 24 hours; unit assumed
Outline: as §1

Escherichia coli SS = Escherichia coli SS (organism code RR); BHI agar, 35-37 °C, 20 to 24 hours; unit assumed
Outline: as §1

[2] = test system: Haemophilis Influenzae DILL AMP R; conditions: Haemophilis Influenzae DILL AMP R (organism code WW); BHI agar, 35-37 °C, 20 to 24 hours; unit assumed
Outline: as §1

[3] = test system: Micrococcus luteus ATCC 4698; conditions: Micrococcus luteus ATCC 4698 (organism code PP); BHI agar, 35-37 °C, 20 to 24 hours; unit assumed
Outline: as §1

[4] = test system: Micrococcus luteus ATCC 9341; conditions: Micrococcus luteus ATCC 9341 (organism code OO); BHI agar, 35-37 °C, 20 to 24 hours; unit assumed
Outline: as §1

[5] = test system: Mycobacterium smegmatis ATCC 114; conditions: Mycobacterium smegmatis ATCC 114 (organism code UU); BHI agar, 35-37 °C, 20 to 24 hours; unit assumed
Outline: as §1

[6] = test system: Nocardia Asteroides ATCC9970; conditions: Nocardia Asteroides ATCC9970 (organism code VV); BHI agar, 35-37 °C, 20 to 24 hours; unit assumed
Outline: as §1

[7] = test system: Staphylococcus aureus 1775; conditions: Staphylococcus aureus 1775 (organism code GG); BHI agar, 35-37 °C, 20 to 24 hours; unit assumed
Outline: as §1

[8] = test system: Staphylococcus aureus A-5278; conditions: Staphylococcus aureus A-5278 (organism code CC); BHI agar, 35-37 °C, 20 to 24 hours; unit assumed
Outline: as §1

[9] = test system: Staphylococcus aureus A5177; conditions: Staphylococcus aureus A5177 (organism code BB); BHI agar, 35-37 °C, 20 to 24 hours; unit assumed
Outline: as §1

[10] = test system: Staphylococcus aureus ATCC 6538P; conditions: Staphylococcus aureus ATCC 6538P (organism code AA); BHI agar, 35-37 °C, 20 to 24 hours; unit assumed
Outline: as §1

[11] = test system: Staphylococcus aureus CMX 553; conditions: Staphylococcus aureus CMX 553 (organism code FF); BHI agar, 35-37 °C, 20 to 24 hours; unit assumed
Outline: as §1

[12] = test system: Staphylococcus aureus CMX 642A; conditions: Staphylococcus aureus CMX 642A (organism code DD); BHI agar, 35-37 °C, 20 to 24 hours; unit assumed
Outline: as §1

[13] = test system: Staphylococcus aureus NCTC10649M; conditions: Staphylococcus aureus NCTC10649M (organism code EE); BHI agar, 35-37 °C, 20 to 24 hours; unit assumed
Outline: as §1

[14] = test system: Staphylococcus epidermidis 3519; conditions: Staphylococcus epidermidis 3519 (organism code HH); BHI agar, 35-37 °C, 20 to 24 hours; unit assumed
Outline: as §1

[15] = test system: Streptococcus Pheumoniae 5649; conditions: Streptococcus Pheumoniae 5649 (organism code ZZA); BHI agar, 35-37 °C, 20 to 24 hours; unit assumed
Outline: as §1

[16] = test system: Streptococcus Pheumoniae 5979; conditions: Streptococcus Pheumoniae 5979 (organism code ZZ); BHI agar, 35-37 °C, 20 to 24 hours; unit assumed
Outline: as §1

[17] = test system: Streptococcus Pheumoniae ATCC6303; conditions: Streptococcus Pheumoniae ATCC6303 (organism code XX); BHI agar, 35-37 °C, 20 to 24 hours; unit assumed
Outline: as §1

[18] = test system: Streptococcus Pheumoniae GYR 1171; conditions: Streptococcus Pheumoniae GYR 1171 (organism code YY); BHI agar, 35-37 °C, 20 to 24 hours; unit assumed
Outline: as §1

[19] = test system: Streptococcus agalactiae CMX 508; conditions: Streptococcus agalactiae CMX 508 (organism code KK); BHI agar, 35-37 °C, 20 to 24 hours; unit assumed
Outline: as §1

[20] = test system: Streptococcus bovis A-5169; conditions: Streptococcus bovis A-5169 (organism code JJ); BHI agar, 35-37 °C, 20 to 24 hours; unit assumed
Outline: as §1

[21] = test system: Streptococcus pyogenes 930; conditions: Streptococcus pyogenes 930 (organism code MM); BHI agar, 35-37 °C, 20 to 24 hours; unit assumed
Outline: as §1

[22] = test system: Streptococcus pyogenes EES61; conditions: Streptococcus pyogenes EES61 (organism code LL); BHI agar, 35-37 °C, 20 to 24 hours; unit assumed
Outline: as §1

[23] = test system: Streptococcus pyogenes PIU 2548; conditions: Streptococcus pyogenes PIU 2548 (organism code NN); BHI agar, 35-37 °C, 20 to 24 hours; unit assumed
Outline: as §1

| Compound | MIC (Candida albicans CCH 442) | MIC [1] | MIC (Escherichia coli DC-2) | MIC (Escherichia coli JUHL) | MIC (Escherichia coli SS) | MIC [2] | MIC [3] | MIC [4] | MIC [5] | MIC [6] | MIC [7] | MIC [8] | MIC [9] | MIC [10] | MIC [11] | MIC [12] | MIC [13] | MIC [14] | MIC [15] | MIC [16] | also measured |
| --- | --- | --- | --- | --- | --- | --- | --- | --- | --- | --- | --- | --- | --- | --- | --- | --- | --- | --- | --- | --- | --- |
| C=CCN(C)[C@H]1C[C@@H](C)O[C@@H](O[C@@H]2[C@@H](C)C(=O)[C@@H](C)C(=O)O[C@H](CC)[C@@]3(C)OC(=O)N[C@@H]3[C@@H](C)C(=O)[C@H](C)C[C@@]2(C)OCC=Cc2cnc3ccccc3c2)[C@@H]1O [Example 6, Compound of Formula (II); R is -CH2CH=CH-(3-quinolyl), R^p is H, W is absent, R^w is H, R^1 is CH2CH=CH2, R^2 is CH3] | > 100 µg/mL | 0.05 µg/mL | 100 µg/mL | 50 µg/mL | 0.2 µg/mL | 4 µg/mL | 0.2 µg/mL | 0.02 µg/mL | 0.2 µg/mL | 0.1 µg/mL | > 100 µg/mL | > 100 µg/mL | 0.05 µg/mL | 0.05 µg/mL | 0.05 µg/mL | 0.1 µg/mL | 0.05 µg/mL | 0.2 µg/mL | 0.25 µg/mL | 16 µg/mL | MIC [17]: ≤ 0.004 µg/mL; MIC [18]: ≤ 0.004 µg/mL; MIC [19]: 0.05 µg/mL; MIC [20]: 0.02 µg/mL; MIC [21]: 3.1 µg/mL; MIC [22]: 0.02 µg/mL; MIC [23]: 0.2 µg/mL |
| CCCN(C)[C@H]1C[C@@H](C)O[C@@H](O[C@@H]2[C@@H](C)C(=O)[C@@H](C)C(=O)O[C@H](CC)[C@@]3(C)OC(=O)N[C@@H]3[C@@H](C)C(=O)[C@H](C)C[C@@]2(C)OCC=Cc2cnc3ccccc3c2)[C@@H]1O [Example 16, Compound of Formula (II); R is -CH2CH=CH-(3-quinolyl), R^p is H, W is absent, R^w is H, R^1 is CH2CH2CH3, R^2 is CH3] | > 100 µg/mL | 0.05 µg/mL | > 100 µg/mL | > 100 µg/mL | 0.2 µg/mL | 8 µg/mL | 0.39 µg/mL | 0.02 µg/mL | 1.56 µg/mL | 0.1 µg/mL | > 100 µg/mL | > 100 µg/mL | 0.39 µg/mL | 0.39 µg/mL | 0.39 µg/mL | 0.39 µg/mL | 0.39 µg/mL | 0.39 µg/mL | 0.5 µg/mL | 128 µg/mL | MIC [17]: 0.03 µg/mL; MIC [18]: 0.03 µg/mL; MIC [19]: 0.01 µg/mL; MIC [20]: 0.01 µg/mL; MIC [21]: 12.5 µg/mL; MIC [22]: 0.01 µg/mL; MIC [23]: 0.1 µg/mL |
| CC[C@H]1OC(=O)[C@H](C)C(=O)[C@H](C)[C@@H](O[C@@H]2O[C@H](C)C[C@H](NC)[C@H]2OC(C)=O)[C@](C)(OCC=Cc2cnc3ccccc3c2)C[C@@H](C)C(=O)[C@H](C)[C@H]2NC(=O)O[C@@]21C [Example 2, Compound of formula (II), R is -CH2CH=CH-(3-quinolyl), R^p is acetyl, R^1 is H, R^2 is CH3, W is absent, R^w is H] | > 100 µg/mL | 0.05 µg/mL | > 100 µg/mL | > 100 µg/mL | 0.39 µg/mL | 16 µg/mL | 0.1 µg/mL | 0.02 µg/mL | 3.1 µg/mL | 1.56 µg/mL | > 100 µg/mL | > 100 µg/mL | 0.2 µg/mL | 0.2 µg/mL | 0.2 µg/mL | 0.2 µg/mL | 0.2 µg/mL | 0.2 µg/mL | 0.5 µg/mL | 128 µg/mL | MIC [17]: 0.03 µg/mL; MIC [18]: 0.03 µg/mL; MIC [19]: ≤ 0.005 µg/mL; MIC [20]: ≤ 0.005 µg/mL; MIC [21]: 25 µg/mL; MIC [22]: ≤ 0.005 µg/mL; MIC [23]: 0.39 µg/mL |
| CC[C@H]1OC(=O)[C@H](C)C(=O)[C@H](C)[C@@H](O[C@@H]2O[C@H](C)C[C@H](N(C)CC3CC3)[C@H]2O)[C@](C)(OCC=Cc2cnc3ccccc3c2)C[C@@H](C)C(=O)[C@H](C)[C@H]2NC(=O)O[C@@]21C [Example 15, Compound of Formula (II); R is -CH2CH=CH-(3-quinolyl), R^p is H, W is absent, R^w is H, R^1 is CH2-(cyclo-C3H5), R^2 is CH3] | > 100 µg/mL | 0.05 µg/mL | > 100 µg/mL | > 100 µg/mL | 0.2 µg/mL | 8 µg/mL | 0.39 µg/mL | 0.05 µg/mL | 0.78 µg/mL | 0.2 µg/mL | > 100 µg/mL | > 100 µg/mL | 0.39 µg/mL | 0.39 µg/mL | 0.39 µg/mL | 0.39 µg/mL | 0.39 µg/mL | 0.39 µg/mL | 0.25 µg/mL | > 128 µg/mL | MIC [17]: 0.03 µg/mL; MIC [18]: 0.03 µg/mL; MIC [19]: 0.05 µg/mL; MIC [20]: 0.02 µg/mL; MIC [21]: 25 µg/mL; MIC [22]: 0.02 µg/mL; MIC [23]: 0.1 µg/mL |
